Earlier results on one molecule are cited in patent US6852718B2, “Phenylsulphonylipiperazinyl derivatives as 5-HT receptor ligands” (Merck Sharp & Dohme Ltd, priority 2000, dated 2005).

The data set concerns the target human dopamine D2 receptor (Homo sapiens, UniProt P14416).

Sequence of human dopamine D2 receptor (P14416 whole entry): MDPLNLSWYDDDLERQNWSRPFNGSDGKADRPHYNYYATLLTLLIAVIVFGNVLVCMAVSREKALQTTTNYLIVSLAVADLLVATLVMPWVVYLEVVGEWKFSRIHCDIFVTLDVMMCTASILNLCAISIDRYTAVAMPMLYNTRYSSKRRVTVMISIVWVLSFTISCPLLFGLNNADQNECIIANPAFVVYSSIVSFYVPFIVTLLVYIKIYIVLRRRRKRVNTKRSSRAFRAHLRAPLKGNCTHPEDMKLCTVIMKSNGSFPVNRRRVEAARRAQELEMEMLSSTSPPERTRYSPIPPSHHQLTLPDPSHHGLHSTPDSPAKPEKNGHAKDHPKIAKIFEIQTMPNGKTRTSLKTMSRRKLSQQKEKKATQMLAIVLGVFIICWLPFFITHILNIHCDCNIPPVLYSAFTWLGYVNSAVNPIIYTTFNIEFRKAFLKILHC

`COc1cccc(C(O)C2CCN(CCc3ccc(F)cc3)CC2)c1OC` (stereo not drawn) [MDL-100,907, (+)-α-(2,3-dimethoxyphenyl)-1-[2-(4-fluorophenyl)-ethyl]-4-piperidinemethanol]: the “activity at the human dopamine D2 receptor” value is recorded as “essentially devoid of activity”.
